Results: a melting point compilation (Tetko et al.; mined from patent text by program, amines drawn as free bases though some values may be those of a salt)

Row | Compound | melting point [°C]
1 | OC(c1cccs1)C1CCCCC1 (configuration not stated) | 90 to 92
2 | CC1OC(=O)Nc2ccc(-c3cccc(F)c3)cc21 (configuration not stated) | 160 to 161
3 | O=C(Cl)c1ccc(Cl)cc1[N+](=O)[O-] | 95 to 96
4 | Cc1cc(Oc2c(Cl)cc(C(F)(F)F)cc2Cl)nn1C(=O)NCCN1CCOCC1 | 99 to 101
5 | COc1ccc(-c2cc(=O)c3c(OCC4=COC(C)(C)O4)cc(OCC4=COC(C)(C)O4)cc3o2)cc1O | 160
6 | CCOC(=O)C(=CNc1c[nH]nn1)C(=O)c1cc(F)c(F)cc1F | 157 to 159
7 | Cc1oc2cc(O)cc(O)c2c(=O)c1-c1ccc(F)cc1 | 222 to 223
8 | O=C1NCC=NN1c1ccc(C(CCl)c2ccc(Cl)cc2)c(C(F)(F)F)c1 (configuration not stated) | 157 to 158
9 | COc1c(N2C[C@H]3CC=C[C@@]3(N)C2)c(F)cc2c(=O)c(C(=O)O)cn([C@@H]3C[C@@H]3F)c12 | 206 to 208
10 | O=C(Nc1ccc2[nH]c(=O)oc2c1)C(=O)N1CCC(Cc2ccc(O)cc2)CC1 | 235 to 239
11 | CCN(CC)CCCCC1CCN(CCNC(=O)N2c3cc(Cl)ccc3C(=O)Nc3cccnc32)CC1 | 157
12 | Cc1cc(C)n2nc(S(=O)(=O)Cl)c(C#N)c2n1 | 138
13 | C[C@]1(N2C(=O)c3cccc(Nc4ccc5c(c4)CCC5)c3C2=O)CCC(=O)NC1=O | 200 to 202
14 | COc1cc(CNC(=O)c2nc3scc(COCc4ccc(C(=O)O)cc4)c3c(=O)[nH]2)ccc1F | 225 to 226
15 | Cc1[nH]n(Cc2ccc([N+](=O)[O-])cc2)c2nc(-c3ccncc3)nc(=O)c1-2 | 275 to 281
16 | CCCCCCCCCCCCN(CCCCCCCCCCCC)c1ccccc1C1=c2ccc(=C3C(=O)c4ccccc4C3=O)cc2OC1=O | 155
17 | Cn1cc(-c2ccc(Cl)c(C(F)(F)F)c2)c(=O)c(C(F)(F)F)c1 | 164 to 165
18 | Cc1cc(OC/C=C(/c2ccc(Cl)cc2)c2ccc(C#CC(C)(C)C)cc2)ccc1OCC(=O)O | 144 to 147
19 | CCOC(=O)C1=C(C)NC(c2ccc(C)cc2)=C(C(=O)OCC)C1c1cccc([N+](=O)[O-])c1 (configuration not stated) | 149 to 150
20 | CC(=O)Nc1cc2c(c(C)c1C)OC(C)(C)C2 | 163 to 164

Row | Compound | melting point [°C]
21 | CCCCCCCCC#CCC#CCC#CCCCC(=O)NCC(O)CO (configuration not stated) | 87
22 | Fc1ccc(Cn2c(NC3CCN(CCN(Cc4ccccc4)Cc4ccccc4)CC3)nc3ccccc32)cc1 | 116
23 | Cc1ccc(-c2nc(CCCOS(=O)(=O)c3ccc(C)cc3)c(C(F)(F)F)o2)cc1 | 57 to 58
24 | CC(C)=Cc1sc(C#N)c2c1C(=O)CC(C)(C)C2 | 115 to 117
25 | COc1cc(C2C(=O)N(C)Cc3c2ccc(OC)c3OC(C)C)cc(OC)c1OC (configuration not stated) | 128 to 129
26 | CCCCn1c(=S)[nH]c2sccc2c1=O | 200 to 203
27 | COc1cc(C=CC(=O)OC2C(O)C=C(C)C(=O)CC2(C)C)ccc1O (configuration not stated) | 125 to 127
28 | Cc1cc(C)c(-n2c(C)cc(C)c(C#N)c2=O)cc1NS(=O)(=O)C(F)(F)F | 274 to 276
29 | CCCC1=C(C(=O)OCC)C(c2cccc(C)c2OC)c2c[nH]nc2N1 (configuration not stated) | 220 to 222
30 | CCOC(=O)C(=O)Nc1cc(C(F)(F)F)c(Cl)cc1[N+](=O)[O-] | 96.5 to 97.5
31 | COc1ccc2oc(C(=O)Nc3ccc(-c4ccc(S(=O)(=O)NC(C(=O)O)C(C)C)cc4)cc3)cc2c1 (configuration not stated) | 257 to 259
32 | C[C@@H]1CN(C(=O)OC(C)(C)C)C[C@H]2Cc3cc(F)cnc3N21 | 56.6 to 58.4
33 | C=C(C)C1CCC2(C(=O)O)CCC3(C)C(CCC4C5(C)CCC(O)C(C)(CO)C5CCC43C)C12 (configuration not stated) | 258 to 259
34 | O=C1NNC(c2ccc3c(c2)CC2(CCN(C4CCC4)CC2)O3)C2C=C12 (configuration not stated) | 189 to 191
35 | CCOC1CC2(C)C(CCC3C4CC5OC5C4(C)CC(N(C)C)C32)CC1O (configuration not stated) | 149 to 151
36 | CCOC(=O)C1=C(C)NC(C)=C(C(=O)OCC)C1c1c(Cl)cccc1Cl | 134 to 135
37 | COC(=N)N1CCC(c2n[nH]c3ccccc23)CC1 | 153 to 155
38 | COc1nc(N)nc2c1ncn2C1O[C@H](CO)C[C@@]1(C)O (some centres not stated) | 140 to 142
39 | CCCCCCCCCCCCCCCCCC(=O)Nc1cccc(C(=O)N(CC(=O)OCC)CC(=O)OCC)c1 | 76 to 79

Continued, values first:

Row | melting point [°C] | Compound
40 | 132 to 134 | N=C(N)NCCCOc1ccc2cc(CC(=O)O)c(=O)n(Cc3ccccc3)c2c1
41 | 185 to 186 | COC(=O)c1ccc(C(=O)O)c(NC(=O)C(F)(F)F)c1
42 | 180 to 184 | COC(=O)c1cc(-n2cnnc2)c(C(F)(F)F)cc1NC(C)=O
43 | 92 to 97 | Cc1ccc(Cn2c(=O)c3c(N4CCN(C)CC4)cc(Cl)cc3n(Cc3ccccc3)c2=O)cc1
44 | 178 to 180 | CCCCc1nc2c(N)nc3ccccc3c2n1CCCC(=O)c1ccccc1
45 | 190 to 191 | CCS(=O)(=O)c1nn(-c2ccccc2)c(=O)c2c(N)scc12
46 | 131 to 132 | COc1cccc(NC(=O)COC(C)=O)c1C#N
47 | 240 to 242 | COC(=O)c1c(C(=O)OC)c(-c2ccc(OC)cc2)n2c1Cc1cc(OC)ccc1-2
48 | 248 to 249 | Cc1nc2c(c3c1[nH]c1ccccc13)C(=O)CC(C(C)C)C2 (configuration not stated)
49 | 161 | Cc1c(C(=O)NCc2ccccc2)nc2n1CCc1ccccc1C2OC1CCN(C)CC1 (configuration not stated)
50 | 126 to 128 | CCOc1ccc(-c2ccc3c(c2)C=C(C(=O)OC)CCN3C=O)cc1F
51 | 255 to 257 | COc1ccn2c(C)c(CCc3ccc4nc(O)oc4c3)nc2c1
52 | 125 to 127 | CC(O)c1ccc(CCNS(=O)(=O)c2ccc(Br)cc2)cc1 (configuration not stated)
53 | 168 to 171 | CCN1CCNC(=O)c2ccc(Nc3ncc(Cl)c(Nc4ccccc4C(=O)NC)n3)cc21
54 | 213 to 215 | CCOC(=O)C1=C(C)NC(=O)N(C(N)=O)C1c1cccc([N+](=O)[O-])c1 (configuration not stated)
55 | 132 to 134 | CCC(=O)ON=C(c1ccccc1)c1cc(C(C)(C)C)c(O)c(C(C)(C)C)c1
56 | 128 to 130 | CC(=O)n1nc(-c2cnccn2)nc1-c1cnccn1
57 | 173 to 175 | CCCCOC(=O)C1CC(n2cnc3c(N)ncnc32)C(O)C1O (configuration not stated)
58 | 213 to 216 | Cc1cc(C)n(-c2nc(Nc3ccc4ccccc4c3)c3ccccc3n2)n1
59 | 114 to 120 | Cc1cccc(CN2CCN(C(c3ccc(Cl)cc3)c3cccc(OCC(=O)O)c3)CC2)c1 (configuration not stated)

Row | melting point [°C] | Compound
60 | 104 to 105 | COc1ccc(C2=NN(c3ccc(OCc4ccccc4)cc3)C(=O)[C@@H]3CC=CC[C@H]23)cc1OC
61 | 53 to 55 | CCCc1c(OCCC(C)Br)ccc(C(C)=O)c1O (configuration not stated)
62 | 217 to 220 | Cc1nc2cc(Sc3cccc4cnccc34)c([N+](=O)[O-])cc2s1
63 | 239 to 242 | Cc1nc(N2CCN(Cc3ccc(F)cc3)C2=O)sc1-c1cc[nH]n1
64 | 139 to 140 | CCOC(=O)C(C#N)=NC=C(N)c1ccccc1
65 | 208 | OC1CSC(Oc2cncc(-c3ccnc(F)c3)c2)C(O)C1O (configuration not stated)
66 | 167 to 169 | CCCc1cn(Cc2ccc(C(=O)OC)cc2OC)c2cc(C=C(C)C(=O)O)ccc12
67 | 132 to 133 | CN=c1c2c(C)c(C)n(-c3ccccc3)c2nc(C)n1C
68 | 136 | CCOC(=O)C(NC(=O)c1cnc2cccc(C)n2c1=O)C(C)C (configuration not stated)
69 | 137 to 142 | O=C(O)COc1cccc2c1CCC(COC(=O)N(c1ccccc1)c1ccccc1)C2 (configuration not stated)
70 | 158 | CCCCCCCC(=O)N(C)Cc1cc(-c2ccc(C=C3SC(=O)NC3=O)cc2)ccc1OCc1ccccc1
71 | 192 to 195 | COc1ccc(C(=O)c2oc3cccc(O)c3c2C)cc1
72 | 134 to 136 | NCc1ccc2sc3ccccc3c(=O)c2c1
73 | 164 to 167 | NC(=S)c1sc(-c2ccccc2)nc1N
74 | 100 to 102 | O=[N+]([O-])CSc1ccc(Oc2ccccc2)cc1
75 | 164 to 165 | O=c1nc(-c2cc(-c3ccccc3)ccn2)sc2ccccc12
76 | 84 to 85 | CCOC(=O)c1c(-c2ccccc2)nn2c1-c1ccccc1CC2
77 | 153 to 162 | CC(=O)N1CCN=C1Nc1cc(C)nn1-c1ccccc1
78 | 216 to 217 | CCOc1cc(OC)ccc1C(CC(=O)Nc1cc(C(N)=O)ccc1C(C)(C)C)CC(C)C (configuration not stated)
79 | 260 to 262 | CC(=O)Nc1ccc2ncnc(Nc3cccc(Cl)c3)c2c1

Row | melting point [°C] | Compound
80 | 146 | COc1ccc2ccc(N3C(=O)c4ccccc4C3OCC(=O)NCCN(C)C)nc2n1 (configuration not stated)
81 | 175 to 178 | CCc1ccc2c(O)c(C(=O)O)cnc2c1
82 | 85 to 87 | CCCCCCCCC(O)C=Cc1cccc(Oc2cccc(C(=O)O)c2)n1 (racemic)
83 | 205 to 207 | CCc1cc(NCc2ccc(-c3ccccc3C#N)cc2)n2ncc([N+](=O)[O-])c2n1
84 | 98 to 100 | Cn1ncc(N2CCN(CC=Cc3ccccc3)CC2)c(Cl)c1=O
85 | 91.7 | CCOC(=O)N1CCC(C(=O)c2ccc(F)cc2)(c2ccccc2)CC1
86 | 36 to 44 | CCOC(=O)C(C)Oc1ccc(OCc2ccccc2)cc1 (configuration not stated)
87 | 133 to 134 | CC(C)(O)c1cc(Br)ccc1NC(=O)CCl
88 | 138 to 139 | Cc1ccc(CNC(=O)c2sc(N3CCN(Cc4ccccc4)C3=O)nc2C)o1
89 | 189 to 190 | O=C(NCC1CCCCCC1)c1cc(-c2ccc(Cl)c(C(=O)O)n2)ccc1Cl
90 | 140 to 142 | CC(Oc1ncn(-c2ccccc2)n1)C(=O)O (configuration not stated)
91 | 185 to 190 | COC(=O)Cc1c(C)n(O)c(=O)c2ccccc12
92 | 84 | CC1(O)CC(C)(C)N(N=Cc2ccccc2)C(C)(C)C1
93 | 216 to 219 | COc1ccccc1NC(=O)Nc1nc(Nc2ccccc2-c2ccccc2)nc(N(CCC(=O)O)Cc2ccccc2C(F)(F)F)n1
94 | 93 to 95 | CC(C)N1CC(CN(C)C)N(C)c2ccccc2C1=O (configuration not stated)
95 | 101 to 102 | CCOC(=O)C1(C(=O)OCC)CCC2(CC1)c1cc(OC)c(OC)cc1CCN2C(=O)OCc1ccccc1
96 | 169 to 171 | CN1N=C(c2ccc(F)cc2)c2cc(F)ccc2CS1(=O)=O
97 | 63 to 65 | Oc1cc(Cl)ccc1Oc1cccc(Br)c1
